Data on 16 molecules can be found in patent publication US10821115B2, “Compounds that inhibit Mcl-1 protein” (priority 2017, dated 2020).

Test [1] addresses recombinant human Mcl-1 (residues 171-327) / Bim interaction (Homo sapiens (Human), UniProt Q07820). The experiment in a line: biochemical. It is filed as binding. The note with it: read-out: Mcl-1 HTRF IC50.
Protocol: The inhibition of the Mcl-1/Bim interaction was measured using a time-resolved fluorescence resonance energy transfer (TR-FRET) assay. […] The TR-FRET assay was conducted in a 384-well white OptiPlate™ (PerkinElmer, Waltham, Mass.) in a total volume of 40 μL. The reaction mixture contained 0.1 nM Mcl-1(171-327), 0.05 nM biotin-Bim (51-76), 0.05 nM LANCE® Eu-W1024 Anti-6×His (PerkinElmer), 0.072 nM Streptavidin-Xlent (Cisbio, Bedford, Mass.), and serially diluted test compounds in the binding buffer of 20 mM Hepes, pH 7.5, 150 mM NaCl, 0.016 mM Brij®35, and 1 mM dithiothreitol. Test compounds were pre-incubated with Mcl-1(171-327) and biotin-Bim (51-76) for 60 min before addition of the detection mixture (LANCE® Eu-W1024 Anti-6×His and Streptavidin-Xlent). The reaction plates were further incubated overnight and then were read on an Envision® multimode reader (PerkinElmer). Fluorescence signals were measured at 620 nm (40-nm bandwidth) and 665 nm (7.5-nm bandwidth) with a 60 is delay after excitation at 320 nm (75-nm bandwidth). The signal ratio at 665/620 nm corresponded to the Mcl-1/Bim interaction and was used in all data analyses. The IC50 values of test compounds were determined from duplicate data by analyzing competition curves using a four-parameter sigmoidal model in GraphPad Prism (GraphPad Software, San Diego, Calif.) or in Genedata Screener® (Genedata, Basel, Switzerland).
Test [2] deals with human multiple myeloma cell line, OPM-2. As to the kind of experiment: Cell viability assay (OPM-2 10 FBS), CellTiter-Glo. Format: cell-based. Summed up: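 Cells were seeded at 3000 cells/well in RPMI 1640 with 10% FBS and exposed to serially diluted compounds for 16 h at 37 °C, 5% CO2.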
[3] abbreviates: 0.1 nM Mcl-1(171-327), 0.05 nM biotin-Bim (51-76).
Where [4] appears, read: Homo sapiens, OPM-2, 16 h, read-out: OPM-2 10% FBS IC50 IP, OPM-2 cells, 10% FBS, 16 h incubation.
[5] abbreviates: TR-FRET, Mcl-1(171-327) / biotin-Bim (51-76).
Setting [6] is: Homo sapiens, OPM-2, 16 h, read-out: OPM-2 10% FBS IC50 IP, OPM-2 cells, 10% FBS, 16 h, CellTiter-Glo.

SMILES strings stand for the structures. Like-named read-outs stand apart in the source and are kept apart here.

Chain of recombinant human Mcl-1 (residues 171-327) / Bim interaction (Q07820 171-327): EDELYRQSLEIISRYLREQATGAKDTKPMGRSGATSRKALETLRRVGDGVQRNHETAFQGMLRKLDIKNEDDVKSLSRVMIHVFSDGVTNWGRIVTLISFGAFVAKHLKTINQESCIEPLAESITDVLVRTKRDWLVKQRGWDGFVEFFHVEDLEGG

`CO[C@@]1(CN2CC3(C2)CS(=O)(=O)C3)/C=C/C[C@H](C)[C@@H](C)S(=O)(=O)NC(=O)c2ccc3c(c2)N(C[C@@H]2CC[C@H]21)C[C@@]1(CCCc2cc(Cl)ccc21)CO3` [Example 202, (1S,3′R,6′R,7′S,8′E,11′S,12′R)-6-chloro-7′-((2,2-dioxido-2-thia-6-azaspiro[3 .3]hept-6-yl)methyl)-7′-methoxy-11′,12′-dimethyl-3,4-dihydro-2H,15′H-spiro[naphthalene-1,22′-[20]oxa[13]thia[1,14]diazatetracyclo [14.7.2.0~3,6~.0~19,24~]pentacosa[8,16,18,24]tetraen]-15′-one 13′,13′-dioxide]: the IC50 in test [1] (setting [3]) worked out at 0.058 nM; in test [2] (setting [4]) it was 142 nM.
On to `CO[C@]1(C)CCC[C@H](C)[C@@H](C)S(=O)(=O)NC(=O)c2ccc3c(c2)N(C[C@@H]2CC[C@H]21)C[C@@]1(CCCc2cc(Cl)ccc21)CO3` (single isomer, unassigned) [Example 100211], for which the IC50 stood at 1.44 nM in test [1] (setting [5]) and 4780 nM in test [2] (read-out: OPM-2 10% FBS IC50 IP, OPM-2 cells, 10% FBS, 16 h, CellTiter-Glo).
In the case of `C[C@@H]1[C@@H](C)CCC[C@@]2(COCCN2)[C@@H]2CC[C@H]2CN2C[C@@]3(CCCc4cc(Cl)ccc43)COc3ccc(cc32)C(=O)NS1(=O)=O` [Example 100269, (1S,3′R,6′R,7′S,11′S,12′R)-6-chloro-11′,12′-dimethyl-3,4-dihydro-2H,15′H-dispiro[naphthalene-1,22′-[20]oxa[13]thia[1,14]diazatetracyclo [14.7.2.0~3,6~.0~19,24~]pentacosa[16,18,24]triene-7′,3″-[1,4]oxazinan]-15′-one 13′,13′-dioxide], the 50% inhibitory concentration (IC50) in test [1] (setting [5]) came to 0.908 nM; in test [2] (setting [6]), 1230 nM.
In the case of `COCCOC[C@@]1(O)CCC[C@H](C)[C@@H](C)S(=O)(=O)NC(=O)c2ccc3c(c2)N(C[C@@H]2CC[C@H]21)C[C@@]1(CCCc2cc(Cl)ccc21)CO3` [Example 100193, (1S,3′R,6′R,7′R,11′S,12′R)-6-chloro-7′-hydroxy-7′-((2-methoxyethoxy)methyl)-11′,12′-dimethyl-3,4-dihydro-2H,15′H-spiro[naphthalene-1,22′-[20]oxa[13]thia[1,14]diazatetracyclo [14.7.2.0~3,6~.0~19,24~]pentacosa[16,18,24]trien]-15′-one 13′,13′-dioxide], the IC50 is 0.856 nM in test [1] (setting [5]) and 1300 nM in test [2] (setting [6]).
For `CO[C@]1(CN2CCN3C(=O)[C@@H](C)OC[C@@H]3C2)/C=C/C[C@H](C)[C@@H](C)S(=O)(=O)NC(=O)c2ccc3c(c2)N(C[C@@H]2CC[C@H]21)C[C@@]1(CCCc2cc(Cl)ccc21)CO3` [Example 144, (1S,3′R,6′R,7′R,8′E,11′S,12′R)-6-chloro-7′-methoxy-11′,12′-dimethyl-7′-(((3R,9aS)-3-methyl-4-oxohexahydropyrazino[2,1-c][1,4]oxazin-8(1H)-yl)methyl)-3,4-dihydro-2H,15′H-spiro[naphthalene-1,22′-[20]oxa[13]thia[1,14]diazatetracyclo [14.7.2.0~3,6~.0~19,24~]pentacosa[8,16,18,24]tetraen]-15′-one 13′,13′-dioxide], the figures for the IC50 in test [1] (setting [3]) and in test [2] (setting [4]) were 0.271 nM and 163 nM, respectively.
For `COCC(COC)N1CCN(C[C@]2(OC)/C=C/C[C@H](C)[C@@H](C)S(=O)(=O)NC(=O)c3ccc4c(n3)N(C[C@@H]3CC[C@H]32)C[C@@]2(CCCc3cc(Cl)ccc32)CO4)CC1` [Example 371, (1S,3′R,6′R,7′S,8′E,11′S,12′R)-6-chloro-7′-methoxy-7′-((4-(2-methoxy-1-(methoxymethyl)ethyl)-1-piperazinyl)methyl)-11′,12′-dimethyl-3,4-dihydro-2H,15′H-spiro[naphthalene1,22′-[20]oxa[13]thia[1,14,25]triazatetracyclo [14.7.2.0~3,6~.0~19,24~]pentacosa[8,16,18,24]tetraen]-15′-one 13′,13′-dioxide] the same measures were 0.101 nM and 43 nM.
With `CCO[C@]1(CN2CCN3CCOC[C@@H]3C2)CCC[C@H](C)[C@@H](CCOC)S(=O)(=O)NC(=O)c2ccc3c(c2)N(C[C@@H]2CC[C@H]21)C[C@@]1(CCCc2cc(Cl)ccc21)CO3` [Example 518, (1S,3′R,6′R,7′R,11′S,12′R)-6-chloro-7′-ethoxy-7′-((9aS)-hexahydropyrazino[2,1-c][1,4]oxazin-8(1H)-ylmethyl)-12′-(2-methoxyethyl)-11′-methyl-3,4-dihydro-2H,15′H-spiro[naphthalene-1,22′-[20]oxa[13]thia[1,14]diazatetracyclo[14.7.2.0˜3,6˜.0˜19,24˜]pentacosa[16,18,24]trien]-15′-one 13′,13′-dioxide], the IC50 in test [1] (setting [3]) is 0.164 nM; in test [2] (setting [4]), 224 nM.
For `CO[C@@]1(CN2CCN(C)CC2)/C=C/C[C@H](C)[C@@H](C)S(=O)(=O)NC(=O)c2ccc3c(c2)N(C[C@@H]2CC[C@H]21)C[C@@]1(CCCc2cc(Cl)ccc21)CO3` [Example 196, (1S,3′R,6′R,7′S,8′E,11′S,12′R)-6-chloro-7′-methoxy-11′,12′-dimethyl-7′-((4-methyl-1-piperazinyl)methyl)-3,4-dihydro-2H,15′H-spiro[naphthalene-1,22′-[20]oxa[13]thia[1,14]diazatetracyclo [14.7.2.0~3,6~.0~19,24~]pentacosa[8,16,18,24]tetraen]-15′-one 13′,13′-dioxide] the same measures were 0.47 nM and 304 nM.
Regarding `CO[C@@]1(c2cnccn2)/C=C/C[C@H](C)[C@@H](C)S(=O)(=O)NC(=O)c2ccc3c(c2)N(C[C@@H]2CC[C@H]21)C[C@@]1(CCCc2cc(Cl)ccc21)CO3` (single isomer, unassigned) [Example 100379], the half-maximal inhibitory concentration (IC50) in test [1] (setting [5]) is 0.06 nM; in test [2] (setting [6]), 71 nM.
Take `C[C@@H]1[C@@H](C)CCC[C@@](O)(CN=[N+]=[N-])[C@@H]2CC[C@H]2CN2C[C@@]3(CCCc4cc(Cl)ccc43)COc3ccc(cc32)C(=O)NS1(=O)=O` (single isomer, unassigned) [Example 506]: the IC50 in test [1] (setting [3]) came to 3.8 nM; in test [2] (read-out: OPM-2 10% FBS IC50 IP, OPM-2 cells, 10% FBS, 16 h incubation) it was 7430 nM.
Turning to `CO[C@]1(C)/C=C/C[C@H](C)[C@@H](C)S(=O)(=O)NC(=O)c2ccc3c(c2)N(C[C@@H]2CC[C@H]21)C[C@@]1(CCCc2cc(Cl)ccc21)CO3` [Example 100215, (1S,3′R,6′R,7′R,8′E,11′S,12′R)-6-chloro-7′-methoxy-7′,11′,12′-trimethyl-3,4-dihydro-2H,15′H-spiro[naphthalene-1,22′-[20]oxa[13]thia[1,14]diazatetracyclo [14.7.2.0~3,6~.0~19,24~]pentacosa[8,16,18,24]tetraen]-15′-one 13′,13′-dioxide], the half-inhibitory concentration (IC50) in test [1] came to 0.595 nM; in test [2] (setting [6]), 1250 nM.
For `C[C@@H]1[C@@H](C)C[C@H]2CCC[C@](O)(C2)[C@@H]2CC[C@H]2CN2C[C@@]3(CCCc4cc(Cl)ccc43)COc3ccc(cc32)C(=O)NS1(=O)=O` [Example 100062, (1S,3′R,6′R,7′S,11′R,13′S,14′R)-6-chloro-7′-hydroxy-13′,14′-dimethyl-3,4-dihydro-2H,17′H-spiro[naphthalene-1,24′-[22]oxa[15]thia[1,16]diazapentacyclo [16.7.2.1~7,11~.0~3,6~.0~21,26~]octacosa [18,20,26]trien]-17′-one 15′,15′-dioxide], the 50% inhibitory concentration (IC50) amounted to 4.25 nM in test [1] (setting [5]) and 9940 nM in test [2] (setting [6]).
The like results for `C[C@@H]1[C@@H](C)C/C=C/C(O)([C@H]2OCCN(C)C2=O)[C@@H]2CC[C@H]2CN2C[C@@]3(CCCc4cc(Cl)ccc43)COc3ccc(cc32)C(=O)NS1(=O)=O` (single isomer, unassigned) [Example 100019] were, in that order, 0.182 nM and 58 nM.
In the case of `C[C@@H]1[C@@H](C)CCCC(CO)(CO)[C@@H]2CC[C@H]2CN2C[C@@]3(CCCc4cc(Cl)ccc43)COc3ccc(cc32)C(=O)NS1(=O)=O` [Example 100342, (1S,3′R,6′R,11′S,12′R)-6-chloro-7′,7′-bis(hydroxymethyl)-11′,12′-dimethyl-3,4-dihydro-2H,15′H-spiro[naphthalene-1,22′-[20]oxa[13]thia[1,14]diazatetracyclo [14.7.2.0~3,6~.0~19,24~]pentacosa[16,18,24]trien]-15′-one 13′,13′-dioxide], the IC50 in test [1] (setting [5]) stood at 1.69 nM; in test [2] (setting [6]), 782 nM.
As for `CO[C@]1(CN2CCN3C(=O)[C@H](C)OC[C@@H]3C2)/C=C/C[C@H](C)[C@@H](C)S(=O)(=O)NC(=O)c2ccc3c(c2)N(C[C@@H]2CC[C@H]21)C[C@@]1(CCCc2cc(Cl)ccc21)CO3` [Example 142, (1S,3′R,6′R,7′R,8′E,11′S,12′R)-6-chloro-7′-methoxy-11′,12′-dimethyl-7′-(((3S,9aS)-3-methyl-4-oxohexahydropyrazino[2,1-c][1,4]oxazin-8(1H)-yl)methyl)-3,4-dihydro-2H,15′H-spiro[naphthalene-1,22′-[20]oxa[13]thia[1,14]diazatetracyclo [14.7.2.0~3,6~.0~19,24~]pentacosa[8,16,18,24]tetraen]-15′-one 13′,13′-dioxide], the IC50 in test [1] (setting [3]) was found to be 0.157 nM; in test [2] (setting [4]), 174 nM.
On to `CO[C@@]1(CC(=O)N(C)CCN2CCOCC2)/C=C/C[C@H](C)[C@@H](C)S(=O)(=O)NC(=O)c2ccc3c(c2)N(C[C@@H]2CC[C@H]21)C[C@@]1(CCCc2cc(Cl)ccc21)CO3` [Example 100377, 2-((1S,3′R,6′R,7′S,8′E,11′S,12′R)-6-chloro-7′-methoxy-11′,12′-dimethyl-13′,13′-dioxido-15′-oxo-3,4-dihydro-2H-spiro[naphthalene-1,22′-[20]oxa[13]thia[1,14]diazatetracyclo [14.7.2.0~3,6~.0~19,24~]pentacosa[8,16,18,24]tetraen]-7′-yl)-N-methyl-N-(2-(4-morpholinyl)ethyl)acetamide], for which the IC50 in test [1] (setting [5]) was found to be 0.107 nM; in test [2] (setting [6]), 182 nM.
